Several values for one entry are separate records, joined by “and”; a condition that tells them apart may be missing. Identical values can stand only once.
Key:
[1] = system: Apoe KO mouse atherosclerosis model; test: Atherosclerosis model (Apoe KO mice, high-fat diet): blood lipid tests TCHO, TG, LDL-C, HDL-C; format: in vivo, C57BL/6 Apoe KO mice; set-up: blood lipids (CHO) in Apo E−/− mice / blood lipids (TG) in Apo E−/− mice / blood lipids (HDL-C) in Apo E−/− mice / blood lipids (LDL-C) in Apo E−/− mice: unit not given here; conditions: HFD + 284-60 mpk
Method: (§1) Method: Apoe KO mice were tested for basal blood lipid levels and divided into a normal control group and a high-fat group. After 8 weeks of housing, the mice from the high-fat group were divided into 4 groups of about 8: a normal diet group (Chow), a high-fat diet model group (HFD), an Atorvastatin positive group (HFD+atorvastatin 5 mpk, QD), and a GEN1-284s group (284-60 mpk, QD). Oral administration was performed for 8 consecutive weeks, and the effect of the compound on the following indicators in Apoe KO mice was observed: 4 blood lipid tests (TC, TG, HDL-C and LDL-C), aortic plaque En-face staining, and pathological oil red staining of the cardiac outflow tract.
(§2) Mice from the groups except for the normal diet control group (Chow) were fed with high-fat feed every day for […]. From week 9, each group was orally administered solvent or a corresponding test compound, and body weight data were recorded every day for 8 consecutive weeks. After the first 8 weeks' high-fat diet, blood samples were taken and centrifuged to separate serum, and the serum was tested for blood lipid levels (TCHO, TG, LDL-C and HDL-C). The mice were randomly grouped according to the TCHO results and body weight. During the subsequent 8 weeks of administration, blood lipid tests (TCHO, TG, LDL-C and HDL-C) were run once every 4 weeks.
Mice were fasted overnight, and blood (150 μL) was collected via mandibular blood sampling or eye ball removal (for endpoint only) and left at room temperature for 2 h. The blood was centrifuged at 4° C. at 7000 rpm for 10 min, and serum was pipetted, quick-frozen in dry ice and then stored at −80° C. before analysis. The serum was tested for the biochemical indicators TCHO, TG, LDL-C and HDL-C using kits and a microplate reader.

[2] = system: IMQ-induced psoriasis mouse model; test: IMQ-induced psoriasis mouse model (PASI scoring); format: in vivo, Balb/c mice; set-up: key to skin thickening in psoriasis mice (score) / skin redness in psoriasis mice (score) / skin scaling in psoriasis mice (score): 0 = none to 4 = very severe, per sign; conditions: 284-30 (30 mpk PO QD)
Method: Method: This experiment used a total of 19 mice. A natural skin observation control (n=1). 2 cm^2 of hair was shaved off the backs of […] on day 0, the stubble was removed with a mild depilatory cream, and the original skin was photographed. 62.5 mg of IMQ was applied to each of the mice. There was a mock group (n=6), a DEX (3 mg/kg, PO., qD) group (n=6), and a GEN1-284s (30 mg/kg, PO, qD) group (n=6). On the day of modeling, administration was performed in a volume of 100 μL/20 g body weight 4 h after IMQ application. The PASI scoring method was used to score the erythema, swelling and scaling on the skin of the mice. The experiment took a total of 6 days. The first day was set to day 0. IMQ application and administration were not performed on day 5. The mice were sacrificed with carbon dioxide at the end of the experiment.
The test animals were anesthetized with isoflurane. 2 cm^2 of hair was shaved off the backs of the mice, and the stubble was removed with a depilatory cream. IMQ application was performed for a total of 5 days, from day 0 to day 4. Scoring and IMQ application were performed every morning. Administration was performed in the afternoon
Desquamation (D): means epidermal cells flake off. The severity scores of skin lesions were as follows: • 0=none; this sign cannot be confirmed by careful observation • 1=mild; this sign can be confirmed but careful observation is required • 2=moderate; this sign is more visible and can be confirmed immediately • 3=severe; this sign is marked. • 4=very severe; this sign is very marked.
Induration I: 0—skin lesions are at the same level as normal skin; • 1—skin lesions are at slightly higher levels than normal skin surface; • 2—lesions moderately stick out and have round or slope-shaped borders; • 3—skin lesions are thick and markedly stick out; • 4—skin lesions are very thick and very markedly stick out.
Erythema E: • 0—no visible erythema; • 1—light red; • 2—red; • 3—dark red; • 4—the red is very dark

[3] = system: Apoe KO mouse atherosclerosis model; test: Atherosclerosis model: aortic plaque En-face staining and plaque area; format: in vivo, C57BL/6 Apoe KO mice; conditions: HFD + 284-60 mpk, PO QD 8 W, individual mice; in % (unit assumed)
Method: as §1, §2
At the end of the experiment, the mice were euthanized by CO2 inhalation, and their hearts and aortas (from the aortic arch to the iliac artery) were isolated. The isolated artery was dissected longitudinally from the aortic arch to the iliac artery, fixed in 4% paraformaldehyde for 30 min, synchronized with 60% isopropanol for 10 min, then stained in 60% oil red for 30 min, and then washed with 60% isopropanol 3 times for 5 min each time. Finally, the stained aorta was washed with deionized water and photographed. The proportion of red plaque areas was measured using Image Pro Plus 6.0 (Media Cybernetics, MD, US).

[4] = system: Apoe KO mouse atherosclerosis model; test: Atherosclerosis model: plaques in the cardiac (left ventricular) outflow tract; format: in vivo, C57BL/6 Apoe KO mice; conditions: HFD + 284-60 mpk, PO QD 8 W, individual mice; in %
Method: as §1, §2
Mouse heart samples were fixed overnight in 4% paraformaldehyde solution and dehydrated in sucrose solution. Then, the samples were embedded with OCT (Sakura, Japan) under a stereo microscope and made into 10 μm frozen sections. The sections were stained with oil red ORO and then subjected to routine pathological examinations. Images of the outflow tract were acquired under an optical microscope at 4× magnification, and high-quality morphological observations were carried out using an eyepiece with 20× magnification. The percentage of intimal lesions in the cardiac outflow tract was calculated. The detection criteria followed the criteria for histological classification of human atherosclerotic disease, which are described in detail below:
The area of plaques in the left ventricular outflow tract was measured using a microscope, and the proportion of plaques in the left ventricular outflow tract was calculated; this value reflects the degree of stenosis in the cardiac outflow tract vessel.

[5] = DAY 1, individual mice, 30 mg/kg
[6] = DAY 2, individual mice, 30 mg/kg
[7] = DAY 3, individual mice, 30 mg/kg
[8] = DAY 4, individual mice, 30 mg/kg
[9] = DAY 5, individual mice, 30 mg/kg

Question: Which results are given for O=C(Cc1ccc2ncccc2c1)N1CCC(n2c(=O)n(COP(=O)(O)O)c3cccc(C(F)(F)F)c32)CC1 [Compound 284]?
Answer: blood lipids (CHO) in Apo E−/− mice ([1]; Time 1, individual mice): 0.7986 and 0.8043 and 0.8562 and 0.7873 and 0.8278 and 1.372 and 1.184; blood lipids (HDL-C) in Apo E−/− mice ([1]; Time 1, individual mice): 1.371 and 0.5315 and 1.057 and 0.9966 and 1.123 and 1.022 and 1.153; blood lipids (LDL-C) in Apo E−/− mice ([1]; Time 1, individual mice): 0.6872 and 1.011 and 0.7654 and 0.5196 and 0.7151 and 1.05 and 1.587; blood lipids (TG) in Apo E−/− mice ([1]; Time 1, individual mice): 0.4337 and 0.6308 and 0.6265 and 0.755 and 0.7465 and 0.995 and 1.031; blood lipids (CHO) in Apo E−/− mice ([1]; Time 2, individual mice): 1.233 and 0.8693 and 1.165 and 0.9214 and 0.6106 and 1.043 and 0.9931 and 1.18; blood lipids (HDL-C) in Apo E−/− mice ([1]; Time 2, individual mice): 2.122 and 0.9935 and 0.9789 and 1.033 and 0.8106 and 1.037 and 1.827 and 1.565; blood lipids (LDL-C) in Apo E−/− mice ([1]; Time 2, individual mice): 1.374 and 0.6809 and 2.129 and 1.097 and 0.9183 and 1.393 and 1.144 and 0.9377; blood lipids (TG) in Apo E−/− mice ([1]; Time 2, individual mice): 1.051 (2×) and 0.7809 and 1.131 and 1.303 and 1.009 and 1.451 and 1.117; blood lipids (CHO) in Apo E−/− mice ([1]; Time 3, individual mice): 1.388 and 0.8444 and 1.354 and 0.78 and 1.427 and 1.407 and 1.241 and 1.477; blood lipids (HDL-C) in Apo E−/− mice ([1]; Time 3, individual mice): 2.24 and 0.5362 and 0.9059 and 0.8576 and 1.163 and 1.018 (2×) and 1.067; blood lipids (LDL-C) in Apo E−/− mice ([1]; Time 3, individual mice): 1.218 and 0.622 and 1.641 and 0.9017 and 1.494 and 1.215 and 2.628 and 1.406; blood lipids (TG) in Apo E−/− mice ([1]; Time 3, individual mice): 0.8373 and 0.8015 and 1.448 and 0.7657 and 0.9226 and 1.222 and 1.943 and 1.2; blood lipids (CHO) in Apo E−/− mice ([1]; Time 4, individual mice): 1.59 and 1.257 and 1.396 and 0.4939 and 0.5475 and 1.048 and 1.029 and 1.174; blood lipids (HDL-C) in Apo E−/− mice ([1]; Time 4, individual mice): 1.04 and 0.5331 and 1.239 and 0.8199 and 0.5772 and 0.511 and 0.5552 and 1.57; blood lipids (LDL-C) in Apo E−/− mice ([1]; Time 4, individual mice): 1.177 and 0.9355 and 0.8511 and 0.1725 and 0.4792 and 1.162 and 1.093 and 0.5061; blood lipids (TG) in Apo E−/− mice ([1]; Time 4, individual mice): 1.059 and 0.6674 and 1.093 and 0.7289 and 1.028 and 0.7597 and 1.227 and 1.278; overall effect on the skin of psoriasis mice (score) ([2]; DAY 0, individual mice): 0; skin redness in psoriasis mice (score) ([2]; DAY 0, individual mice): 0; skin scaling in psoriasis mice (score) ([2]; DAY 0, individual mice): 0; skin thickening in psoriasis mice (score) ([2]; DAY 0, individual mice): 0; overall effect on the skin of psoriasis mice (score) [2, 5]: 1.667 and 1.167 and 1 and 2.333 and 2 and 0.6667; skin redness in psoriasis mice (score) [2, 5]: 1 and 0.6667 and 0.8333 and 0.5 and 1.167 and 0; skin scaling in psoriasis mice (score) [2, 5]: 0.1667 (3×) and 0 and 0.8333 and 0.3333; skin thickening in psoriasis mice (score) [2, 5]: 0.5 (4×) and 0 and 1; overall effect on the skin of psoriasis mice (score) [2, 6]: 1.5 (2×) and 2 and 1.333 and 2.333 (2×); skin redness in psoriasis mice (score) [2, 6]: 0.8333 and 1 and 0.5 (2×) and 0.3333 and 0.1667; skin scaling in psoriasis mice (score) [2, 6]: 0.1667 and 0.5 and 0.3333 and 0.8333 (2×) and 1; skin thickening in psoriasis mice (score) [2, 6]: 0.5 (4×) and 1 (2×); overall effect on the skin of psoriasis mice (score) [2, 7]: 3.333 (3×) and 2.333 and 2.5 and 2.167; skin redness in psoriasis mice (score) [2, 7]: 1 (2×) and 0.8333 (2×) and 0.6667 and 0.5; skin scaling in psoriasis mice (score) [2, 7]: 0.8333 and 0.5 and 1.833 and 0.6667 (2×) and 1.167; skin thickening in psoriasis mice (score) [2, 7]: 1.5 (2×) and 1 (3×) and 0.5; overall effect on the skin of psoriasis mice (score) [2, 8]: 2.667 and 3.667 (2×) and 2.833 (2×) and 3; skin redness in psoriasis mice (score) [2, 8]: 1.333 and 1 (2×) and 0.6667 and 1.167 and 0.8333; skin scaling in psoriasis mice (score) [2, 8]: 1.333 and 1.667 and 1.167 and 1 and 1.5 (2×); skin thickening in psoriasis mice (score) [2, 8]: 0 and 1 (4×) and 0.5; overall effect on the skin of psoriasis mice (score) [2, 9]: 3 (2×) and 2.667 and 4.333 and 3.5 (2×); skin redness in psoriasis mice (score) [2, 9]: 1.5 and 0.6667 (3×) and 1 and 0.5; skin scaling in psoriasis mice (score) [2, 9]: 1.5 and 1 and 2.333 and 1.333 and 1.833 and 2.5; skin thickening in psoriasis mice (score) [2, 9]: 0 and 1 (4×) and 0.5; atherosclerotic plaques in mice (proportion of arterial plaque area) [3]: 14.51 and 15.36 and 6.043 and 8.803 and 8.747 and 3.497 and 13.32 and 11.93; plaques in the cardiac outflow tracts of mice (proportion of plaques in the left ventricular outflow tract) [4]: 3.172 and 8.444 and 8.652 and 1.278 and 0.625 and 2.394 and 7.368
